Measured values reported in US20150038435A1, “N-TERMINALLY MODIFIED OLIGOPEPTIDES AND USES THEREOF” (Novo Nordisk A/S, priority 2012, published 2015).
Non-standard residues stand in square brackets, D forms with d. Residues, ends and D or L forms follow the SMILES beside them. *: point of attachment. Lauroyl = CCCCCCCCCCCC(=O)*

Columns and labels:
[1] = tested on: Trypsin; assay: Inhibition of enzymatic degradation of a model GLP-1 (FRET substrate) by trypsin; type: biochemical; details: for Slope of the initial increase in fluorescence obtained during incubation with 0.001 mg/ml Trypsin: compound 1 mM; for EC50: read-out: EC50 Trypsin (0.001 mg/ml), 0.001 mg/ml trypsin, 37° C.
How it was run: (§1)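 Initial-rate slopes of fluorescence rise (320 nm ex, 405 nm em), fitted over the linear early phase and averaged from duplicates, were plotted against inhibitor concentration and fitted logistically to give EC50. Reactions ran at 37° C in Dulbecco's PBS, with MCA/DNP GLP-1 FRET substrate added as 10 μl of 100 μM stock.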

[2] = tested on: Chymotrypsin; assay: Inhibition of enzymatic degradation of a model GLP-1 (FRET substrate) by chymotrypsin; type: biochemical; details: for Slope of the initial increase in fluorescence obtained during incubation with 0.001 mg/ml Chymotrypsin: compound 1 mM; for EC50: read-out: EC50 Chymotrypsin (0.001 mg/ml), 0.001 mg/ml chymotrypsin, 37° C., ± standard error if at least 3 measurements
How it was run: as §1

[3] = Hydrophobicity: retention time during reverse phase HPLC; type: physicochemical; details: Acquity CSH C18; pH 7.2 buffer/CH3CN gradient; 40° C.
Excerpt: The retention time (RT) during reverse phase HPLC was taken as a measure of hydrophobicity of an N-terminally modified peptide or oligopeptide of the invention, where the connection is: The longer the RT, the more hydrophobic N-terminally modified peptide or oligopeptide. The following running conditions were applied during HPLC analysis:
Buffer B: 70% (v/v) aq. CH3CN

[4] = Stability of N-terminally acylated peptides or oligopeptides in GI juice; type: in vitro ADME; details: degradation of the compound itself in jejunum extract from rat, read-out: t 1/2 in rat GI juice
Procedure: 96 well plates were coated by incubating with 0.4% Bovine serum albumin (BSA) solution for minimum of 60 min. To each well, 210 μl of buffer (Hank's balanced salt solution-4-(2-hydroxyethyl)-1-piperazineethanesulfonic acid (HBSS-HEPES) buffer) with 0.005% Tween 20 and 0.001% BSA, pH 6.5 precipitated with 3 vol. cold 96% ethanol (EtOH) w. 1% TFA), 30 μl of a substrate (100 μM insulin analogue or GLP-1 analogue in buffer) and 30 μl of N-terminally acylated peptide or oligopeptide of the invention (10 mM) were added. The plates were pre-incubated (before adding GI juice) for 60 min at 37° C. After addition of 30 μl of GI juice (10-times diluted in buffer), the plates were incubated for 60 min/37° C. on shaker. Samples (40 μl) were taken at 0, 5, 10, 20, 30 and 60 min, stopped with 3 vol. cold 96% EtOH w. 1% TFA and spun down in plates (4500 rpm for 10 min). Samples were diluted 5 times with the buffer prior to LC-MS analysis. Standard samples (0.1, 0.5, 1.0, 5.0, 10.0 μM) were prepared and treated as the samples. Standard curve was analysed both at the beginning and the end of the sequence. Two replicates of each tested conditions were included. Ion suppression was assessed by analyzing a standard at 1 μM and at 10 μM with 1 mM inhibitor present. Intact insulin or GLP-1 analoues were determined at each sample. The results were plotted against the incubation time. Half-lives of the insulin or GLP-1 analogues were determined by nonlinear regression of the results using, for example Graph Pad Prism. The half-lives were expressed relative to the half-live of the insulin or GLP-1 analogue without inhibitor present by dividing the half-lives obtained in the presence of inhibitor with those obtained in the absence of inhibitors. GI juice was prepared from male Sprague Dawley rats (200-250 g) by excising approximately 20 cm piece of mid jejunum and rinsing the inside with 2.5 ml 0.9% sodium chloride solution. The sodium chloride solution was collected in a centrifuge tube, pooled from all rats (20) and centrifuged at 4500 rpm./10 min/4° C. The supernatant was aliquoted in tubes and stored at −80° C.
Degradation of the N-terminally fatty acid modified peptide or oligopeptide of the invention themselves in jejunum extract from rat (GI juice) and determination of half-lives, was measured as described above (example 200).

Structure (SMILES) | Slope of the initial increase in fluorescence obtained during incubation with 0.001 mg/ml Trypsin [1] | EC50 [1] | Slope of the initial increase in fluorescence obtained during incubation with 0.001 mg/ml Chymotrypsin [2] | EC50 [2] | RT (retention time during reverse phase HPLC as a measure of hydrophobicity) [3] | half-life at 1 mM ([4]; male, Sprague Dawley, rat GI juice (jejunum extract), pH 6.5) | half-life ([4]; GI juice (jejunum extract))
CCCCCCCCCCCC(=O)N[C@H](C)C(=O)N[C@H](C)C(=O)N1CCC[C@@H]1C(=O)N[C@H](Cc1ccccc1)C(=O)O [Example 1, N-dodecanoyl-DAla-DAla-DPro-DPhe-OH] (Lauroyl-[dA][dA][dP][dF]-OH) | 0.39 | > 500 µM | 0.41 | 476 µM | 6.91 min | > 1000 min | 
CCCCCCCCCCCC(=O)N[C@@H](C)C(=O)N[C@@H](C)C(=O)N1CCC[C@H]1C(=O)N[C@@H](Cc1ccccc1)C(=O)O [Example 34, N-dodecanoyl-Ala-Ala-Pro-Phe-OH] (Lauroyl-AAPF-OH) | 0.31 | 317 µM | 0.07 | 200 ± 26 µM | 6.94 min |  | 3.5 min
